{"source": "patent US20100234438A1", "about": "“THERAPEUTIC AGENTS” (priority 2006, published 2010)", "biological_target": "T1, CB1 receptor (Homo sapiens, UniProt P21554)", "T1 construct": "expressed in transfected cells", "T1 sequence (P21554 whole entry)": "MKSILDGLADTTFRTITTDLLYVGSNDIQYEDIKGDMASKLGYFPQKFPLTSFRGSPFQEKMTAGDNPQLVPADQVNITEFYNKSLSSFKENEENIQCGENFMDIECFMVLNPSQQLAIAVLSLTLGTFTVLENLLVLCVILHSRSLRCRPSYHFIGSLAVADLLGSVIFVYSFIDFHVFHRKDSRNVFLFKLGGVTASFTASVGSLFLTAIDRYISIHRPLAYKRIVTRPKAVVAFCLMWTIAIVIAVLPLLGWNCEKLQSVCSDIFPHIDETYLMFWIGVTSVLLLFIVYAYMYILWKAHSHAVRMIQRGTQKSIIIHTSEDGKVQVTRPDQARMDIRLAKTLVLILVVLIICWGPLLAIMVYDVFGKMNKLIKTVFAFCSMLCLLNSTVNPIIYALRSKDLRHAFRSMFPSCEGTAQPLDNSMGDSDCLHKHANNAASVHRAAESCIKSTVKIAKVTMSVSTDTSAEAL", "test": "[35S]-GTPγS binding assay on membranes from cells stably transfected with the CB1 gene, inhibition of agonist CP55940 (EC80)", "type": "biochemical", "settings": "half maximal inhibition of GTPγS binding in presence of EC80 concentration of CP55940; 30° C., 45 min", "method": "The compound of the present invention is active against the receptor product of the CB1 gene. The affinity of the compounds of the invention for central cannabinoid receptors is demonstrable in methods described in Devane et al, Molecular Pharmacology, 1988, 34,605 or those described in WO01/70700 or EP 656354. Alternatively the assay may be performed as follows.\n10 μg of membranes prepared from cells stably transfected with the CB1 gene were suspended in 200 μl of 100 mM NaCl, 5 mM MgCl2, 1 mM EDTA, 50 mM HEPES (pH 7.4), 1 mM DTT, 0.1% BSA and 100 μM GDP. To this was added an EC80 concentration of agonist (CP55940), the required concentration of test compound and 0.1 μCi [^35S]-GTPγS. The reaction was allowed to proceed at 30° C. for 45 min. […] Filters were then covered with scintilant and counted for the amount of [^35S]-GTPγS retained by the filter.\nActivity is measured in the absence of all ligands (minimum activity) or in the presence of an EC80 concentration of CP55940 (maximum activity). […] At various concentrations of novel ligand, activity is calculated as a percentage of the maximum activity and plotted. The data are fitted using the equation y=A+((B−A)/1+((C/x) ÙD)) and the IC50 value determined as the concentration required to give half maximal inhibition of GTPγS binding under the conditions used.", "data": [{"smiles": "O=C(N[C@@H]1CCCC[C@@H]1O)c1nn(-c2ccc(Cl)cc2Cl)c(-c2ccc(OS(=O)(=O)CCC(F)(F)F)cc2)c1CO", "note": "(single isomer, unassigned) [Example 1, (−)3,3,3-Trifluoro-propane-1-sulfonic acid 4-[2-(2,4-dichloro-phenyl)-5-(2-hydroxy-cyclohexylcarbamoyl)-4-hydroxymethyl-2H-pyrazol-3-yl]-phenyl ester]", "values": [{"measurement": "IC50", "result": 2.3, "unit": "nM"}]}]}
